pIC50: −log10 of the molar value. Like-named read-outs stand apart in the source and are kept apart here.
Key:
[1] = tested on: IL-5 mediated survival of human eosinophils; assay: Assay 16: IL-5 mediated eosinophil survival assay; assay type: cell-based; settings: 72 h, read-out: pIC50, IL-5 mediated eosinophil survival (cell viability) (converted)
Description: The potency of the test compound for IL-5 mediated eosinophil survival was measured in human eosinophils isolated from human whole blood (AllCells). Because IL-5 signals through JAK, this assay provides a measure of JAK cellular potency. Human eosinophils were isolated from fresh human whole blood (AllCells) of healthy donors. Blood was mixed with 4.5% Dextran (Sigma-Aldrich) in a 0.9% sodium chloride solution (Sigma-Aldrich). Red blood cells were left to sediment for 35 minutes. The leukocyte rich upper layer was removed and layered over Ficoll-Paque (GE Healthcare) and centrifuged at 600 g for 30 minutes. The plasma and mononuclear cell layers were removed before the granulocyte layer was lysed with water to remove any contaminating red blood cells. […] Purity was analyzed using a LSRII flow cytometer (BD Biosciences). […]
After cytokine stimulation, cells were centrifuged at 300 g for 5 min and washed twice with cold DPBS (Life Technologies). To access viability and apoptosis, cells were incubated with Propidium Iodide (Thermo Fisher Scientific) and APC Annexin V (BD Biosciences) and analyzed using a LSRII flow cytometer (BD Biosciences). IC50 values were determined from analysis of the viability curves of percent cell viability vs compound concentration. Data are expressed as pIC50 (negative decadic logarithm IC50) values.

[2] = tested on: IL-2, IL-4, IL-6, and IFNγ signaling; assay: Cellular assays of Assays 3 to 7 (summary statement); assay type: cell-based; settings: Homo sapiens, summary over cellular Assays 3 to 7
[3] = tested on: IL-13 induced pSTAT6 in lung tissue; assay: Assay 9: Murine model of IL-13 induced pSTAT6 induction in lung tissue; assay type: in vivo, balb/c mice; settings: mouse, 0.5 mg/mL 50 μL oral aspiration; after IL-13 challenge (so in the source)
Description: 11-13 is an important cytokine underlying the pathophysiology of asthma (Kudlacz et al. Eur. J. Pharmacol, 2008, 582,154-161). IL-13 binds to cell surface receptors activating members of the Janus family of kinases (JAK) which then phosphorylate STAT6 and subsequently activates further transcription pathways. In the described model, a dose of IL-13 was delivered locally into the lungs of mice to induce the phosphorylation of STAT6 (pSTAT6) which is then measured as the endpoint.
Adult balb/c mice from Harlan were used in the assay. On the day of study, animals were lightly anesthetized with isoflurane and administered either vehicle or test compound (0.5 mg/mL, 50 μL total volume over several breaths) via oral aspiration. Animals were placed in lateral recumbency post dose and monitored for full recovery from anesthesia before being returned to their home cage. Four hours later, animals were once again briefly anesthetized and challenged with either vehicle or IL-13 (0.03 μg total dose delivered, 50 μL total volume) via oral aspiration before being monitored for recovery from anesthesia and returned to their home cage. […] using an anti-pSTAT6 ELISA (rabbit mAb capture/coating antibody; mouse mAb detection/report antibody: anti-pSTAT6-pY641; secondary antibody: anti-mouse IgG-HRP) and analyzed for total drug concentration as described above in Assay 12. […]

Molecule `CCc1cc(O)c(F)cc1-c1ccc2c(-c3nc4c([nH]3)CCN(C3CCN(C)CC3)C4)n[nH]c2c1` [Compound 1, 5-ethyl-2-fluoro-4-(3-(5-(1-methylpiperidin-4-yl)-4,5,6,7-tetrahydro-1H-imidazo[4,5-c]pyridin-2-yl)-1H-indazol-6-yl)phenol] has an IC50 ([1]; in the presence of 10 pg/ml IL-5, 72 hours) of 12.6 nM, an IC50 ([1]; in the presence of 1 ng/ml IL-5, 72 hours) of 316 nM and a pIC50 ([2]; read-out: IC50 for inhibition of IL-2, IL-4, IL-6, and IFNγ signaling) of at least 6.70. The IC50 ([2]; read-out: pIC50 for inhibition of IL-2, IL-4, IL-6, and IFNγ signaling (converted)) was at most 200 nM and the “inhibition of STAT6 phosphorylation in lung” value [3] was “about 60%”.
